pIC50: −log10 of the molar value. Where a name gives a salt, the structure may show the parent alone.
biological target: CK2A1 (CK2α/β) (Homo sapiens, UniProt P68400); assay: CK2 kinase assay, CK2A1 (CK2α/β); assay type: biochemical; conditions: CK2A1 (CK2α/β) (IC50, nM), Table A
Sequence (P68400 whole entry, species assumed): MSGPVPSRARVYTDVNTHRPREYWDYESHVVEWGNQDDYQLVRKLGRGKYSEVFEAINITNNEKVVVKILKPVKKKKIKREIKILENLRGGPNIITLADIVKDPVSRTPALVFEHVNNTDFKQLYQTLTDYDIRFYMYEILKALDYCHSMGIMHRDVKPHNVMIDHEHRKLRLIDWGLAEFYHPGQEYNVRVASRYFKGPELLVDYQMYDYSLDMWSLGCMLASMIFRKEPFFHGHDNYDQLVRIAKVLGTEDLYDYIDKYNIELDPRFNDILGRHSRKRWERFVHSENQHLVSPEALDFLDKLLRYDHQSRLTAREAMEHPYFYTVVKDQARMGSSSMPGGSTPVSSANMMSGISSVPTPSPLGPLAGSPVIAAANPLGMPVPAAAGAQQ
Sequence (P67870 whole entry partner, species assumed): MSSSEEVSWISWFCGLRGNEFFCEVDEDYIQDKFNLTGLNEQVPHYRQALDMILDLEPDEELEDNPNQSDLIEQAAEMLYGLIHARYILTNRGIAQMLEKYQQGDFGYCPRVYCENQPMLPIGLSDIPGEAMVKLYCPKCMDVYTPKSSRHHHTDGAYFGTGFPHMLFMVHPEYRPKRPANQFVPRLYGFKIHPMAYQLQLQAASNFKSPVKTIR

SMILES	IC50 [nM]
CCNc1nc(Nc2cc(C#N)cc(N3CC[C@@H](NC(=O)OC)[C@H](OC(=O)Cc4ccc(OP(=O)(O)O)cc4)C3)c2Cl)nn2c(C#N)cnc12 [Example 344, (3R,4R)-1-(2-chloro-5-cyano-3-((7-cyano-4-(ethylamino)imidazo[2,1-f][1,2,4]triazin-2-yl)amino)phenyl)-4-((methoxycarbonyl)amino)piperidin-3-yl 2-(4-(phosphonooxy)phenyl)acetate]	3

same assay, conditions: Table A; read-out: CK2A1 (CK2α/β) (IC50)

SMILES	pIC50
CC1(O)CN(C2CCN(c3cc(C(F)F)cc(Nc4nc(NC5CC5)c5ncc(C#N)n5n4)c3Cl)CC2)C1 [Example 257, 2-((2-chloro-5-(difluoromethyl)-3-(4-(3-hydroxy-3-methyl-1-azetidinyl)-1-piperidinyl)phenyl)amino)-4-(cyclopropylamino)imidazo[2,1-f][1,2,4]triazine-7-carbonitrile]	9.01
N#Cc1cc(Nc2nc(NC3CC3)c3ncc(C#N)n3n2)c(Cl)cc1CCCO [Example 566, 2-((2-chloro-5-cyano-4-(3-hydroxypropyl)phenyl)amino)-4-(cyclopropylamino)imidazo[2,1-f][1,2,4]triazine-7-carbonitrile]	10.00
CCNc1nc(Nc2cc(C#N)cc(CCCN3CCN(C)CC3)c2Cl)nn2c(C#N)cnc12 [Example 578, 2-((2-chloro-5-cyano-3-(3-(4-methylpiperazin-1-yl)propyl)phenyl)amino)-4-(ethylamino)imidazo[2,1-f][1,2,4]triazine-7-carbonitrile]	9.00
CS(=O)(=O)NC(=O)CN1CCN(c2cc(C#N)cc(Nc3nc(NC4CC4)c4ncc(C#N)n4n3)c2Cl)CC1 [Example 607, 2-[4-(2-chloro-5-cyano-3-{[7-cyano-4-(cyclopropylamino)imidazo [2,1-f][1,2,4]triazin-2-yl]amino}phenyl)piperazin-1-yl]-N-methanesulfonamide-acetamide]	9.25
CCNc1nc(Nc2cc(C#N)cc(N3CC[C@@H](NC(=O)OC)[C@H](NC4COC4)C3)c2Cl)nn2c(C#N)cnc12 [Example 746, methyl ((3R,4R)-1-(2-chloro-5-cyano-3-((7-cyano-4-(ethylamino)imidazo[2,1-f][1,2,4]triazin-2-yl)amino)phenyl)-3-(oxetan-3-ylamino)piperidin-4-yl)carbamate]	8.87
N#Cc1cnc2c(NC3CC3)nc(Nc3cc(OC(F)F)cc(N4CCOCC4)c3Cl)nn12 [Example 406, 2-(2-chloro-5-(difluoromethoxy)-3-morpholinophenylamino)-4-(cyclopropylamino)imidazo[1,2-f][1,2,4]triazine-7-carbonitrile]	8.67
CC(C)(O)C1CCN(CCCc2cc(Cl)c(Nc3nc(NC4CC4)c4ncc(C#N)n4n3)cc2C#N)CC1 [Example 568, 2-((2-chloro-5-cyano-4-(3-(4-(2-hydroxypropan-2-yl)piperidin-1-yl)propyl)phenyl)amino)-4-(cyclopropylamino)imidazo[2,1-f][1,2,4]triazine-7-carbonitrile]	8.71
CCNc1nc(Nc2cc(C#N)cc(N3CC[C@H]4NCCO[C@@H]4C3)c2Cl)nn2c(C#N)cnc12 (racemic) [Example 371, (+/−)-2-((2-chloro-5-cyano-3-((4aR,8aR)-hexahydro-1H-pyrido[3,4-b][1,4]oxazin-6(7H)-yl)phenyl)amino)-4-(ethylamino)imidazo[2,1-f][1,2,4]triazine-7-carbonitrile]	8.44
N#Cc1cc(Nc2nc(NC3CC3)c3ncc(C#N)n3n2)c(Cl)c(N2CCOC(CN3CC(F)C3)C2)c1 (centres unmarked) [Example 705, 2-[(2-chloro-5-cyano-3-{2-[(3-fluoroazetidin-1-yl)methyl]morpholin-4-yl}phenyl)amino]-4-(cyclopropylamino)imidazo[2,1-f][1,2,4]triazine-7-carbonitrile]	9.05
CCNc1nc(Nc2cc(C#N)cc(N3CC[C@@H](NC(=O)OC)[C@@H](NCC(O)C(F)(F)F)C3)c2Cl)nn2c(C#N)cnc12 (stereo partly drawn) [Example 761, methyl N-[(3S,4R)-1-(2-chloro-5-cyano-3-{[7-cyano-4-(ethylamino)imidazo[2,1-f][1,2,4]triazin-2-yl]amino}phenyl)-3-[(3,3,3-trifluoro-2-hydroxypropyl)amino]piperidin-4-yl]carbamate]	8.00
CN1CC2(CCN(c3cc(C#N)cc(Nc4nc(NC5CC5)c5ncc(C#N)n5n4)c3Cl)CC2)CC1=O (racemic) [Example 782, (+/−)-2-((2-chloro-5-cyano-3-(2-methyl-3-oxo-2,8-diazaspiro[4.5]decan-8-yl)phenyl)amino)-4-(cyclopropylamino)imidazo[2,1-f][1,2,4]triazine-7-carbonitrile]	9.24
N#Cc1cc(Nc2nc(NC3CC3)c3ncc(C#N)n3n2)c(Cl)c(C2CCN(C3CC4(COC4)C3)CC2)c1 [Example 222, 2-((2-chloro-5-cyano-3-(1-(2-oxaspiro[3.3]hept-6-yl)-4-piperidinyl)phenyl)amino)-4-(cyclopropylamino)imidazo[2,1-f][1,2,4]triazine-7-carbonitrile]	8.93
CCNc1nc(Nc2cc(C#N)cc(N3CC[C@@H](NC(=O)OC)[C@H](OC(=O)[C@H](N)CC(N)=O)C3)c2Cl)nn2c(C#N)cnc12 [Example 818, (R)-(3R,4R)-1-(2-chloro-5-cyano-3-((7-cyano-4-(ethylamino)imidazo[2,1-f][1,2,4]triazin-2-yl)amino)phenyl)-4-((methoxycarbonyl)amino)piperidin-3-yl 2,4-diamino-4-oxobutanoate hydrochloride]	8.60
N#Cc1cc(Nc2nc(NC3CC3)c3ncc(C#N)n3n2)c(Cl)c(N2CCN(C(=O)C3CNCCO3)CC2)c1 (racemic) [Example 94, (+/−) 2-(2-chloro-5-cyano-3-(4-(morpholine-2-carbonyl)piperazin-1-yl)phenylamino)-4-(cyclopropylamino) imidazo[1,2-f][1,2,4] triazine-7-carbonitrile]	9.02
CCNc1nc(Nc2cc(C#N)cc(N3CC[C@@H](NC(=O)OC)[C@H](OC(=O)CNC(=O)[C@H](C)N)C3)c2Cl)nn2c(C#N)cnc12 [Example 821, (3R,4R)-1-(2-chloro-5-cyano-3-((7-cyano-4-(ethylamino)imidazo[2,1-f][1,2,4]triazin-2-yl)amino)phenyl)-4-((methoxycarbonyl)amino)piperidin-3-yl 2-((S)-2-aminopropanamido)acetate hydrochloride]	8.57
N#Cc1cc(Nc2nc(NC3CC3)c3ncc(C#N)n3n2)c(Cl)c(N2CCN(C3(C#N)COC3)CC2)c1 [Example 104, 2-((2-chloro-5-cyano-3-(4-(3-cyano-3-oxetanyl)-1-piperazinyl)phenyl)amino)-4-(cyclopropylamino) imidazo[2,1-f][1,2,4] triazine-7-carbonitrile]	9.15
CNC(=O)CN1CCN(c2cc(C#N)cc(Nc3nc(NC4CC4)c4ncc(C#N)n4n3)c2Cl)CC1 [Example 611, 2-[4-(2-chloro-5-cyano-3-{[7-cyano-4-(cyclopropylamino)imidazo [2,1-f][1,2,4]triazin-2-yl]amino}phenyl)piperazin-1-yl]-N-methylacetamide]	9.19
COC(=O)N[C@H]1CCN(c2cc(C#N)cc(Nc3nc(NC4CC4)c4ncc(C#N)n4n3)c2Cl)C[C@H]1NC(C)C [Example 756, methyl N-[(3R,4S)-1-(2-chloro-5-cyano-3-{[7-cyano-4-(cyclopropylamino)imidazo [2,1-f][1,2,4]triazin-2-yl]amino}phenyl)-3-[(propan-2-yl)amino]piperidin-4-yl]carbamate]	8.35
CN1CCN(C(=O)C2CCN(c3cc(C(F)F)cc(Nc4nc(NC5CC5)c5ncc(C#N)n5n4)c3Cl)CC2)CC1 [Example 546, 2-((2-chloro-5-(difluoromethyl)-3-(4-(4-methylpiperazine-1-carbonyl)piperidin-1-yl)phenyl)amino)-4-(cyclopropylamino)imidazo[2,1-f][1,2,4]triazine-7-carbonitrile]	8.57
CC1(N)CCN(c2cc(C#N)cc(Nc3nc(NC4CC4)c4ncc(C#N)n4n3)c2Cl)CC1 [Example 18, 2-((3-(4-amino-4-methyl-1-piperidinyl)-2-chloro-5-cyanophenyl)amino)-4-(cyclopropylamino)imidazo [2,1-f][1,2,4]triazine-7-carbonitrile]	9.26
COC(C)CN1CCN(c2cc(C#N)cc(Nc3nc(NC4CC4)c4ncc(C#N)n4n3)c2Cl)CC1 (centres unmarked) [Example 596, 2-({2-chloro-5-cyano-3-[4-(2-methoxypropyl)piperazin-1-yl]phenyl}amino)-4-(cyclopropylamino)imidazo [2,1-f][1,2,4]triazine-7-carbonitrile]	9.22
CCN1CC2(CCN(c3cc(C#N)cc(Nc4nc(NC5CC5)c5ncc(C#N)n5n4)c3Cl)CC2)C1 [Example 801, 2-((2-chloro-5-cyano-3-(2-ethyl-2,7-diazaspiro[3.5]nonan-7-yl)phenyl)amino)-4-(cyclopropylamino)imidazo[2,1-f][1,2,4]triazine-7-carbonitrile]	8.67
N#Cc1cc(Nc2nc(NC3CC3)c3ncc(C#N)n3n2)c(Cl)c(N2CCN3C[C@H](O)C[C@H]3C2)c1 (racemic) [Example 434, (+/−)-2-((2-chloro-5-cyano-3-((7R,8aS)-7-hydroxyhexahydropyrrolo[1,2-a]pyrazin-2(1H)-yl)phenyl)amino)-4-(cyclopropylamino)imidazo[2,1-f][1,2,4]triazine-7-carbonitrile]	9.21
N#Cc1cc(Nc2nc(NC3CC3)c3ncc(C#N)n3n2)c(Cl)c(N2CCC3CCNC3C2)c1 (racemic) [Example 454, (+/−)-2-((2-chloro-5-cyano-3-(hexahydro-1H-pyrrolo[2,3-c]pyridin-6(2H)-yl)phenyl)amino)-4-(cyclopropylamino)imidazo[2,1-f][1,2,4]triazine-7-carbonitrile]	8.90
CC(C)(N)C(=O)N1CCC(c2cc(C#N)cc(Nc3nc(NC4CC4)c4ncc(C#N)n4n3)c2Cl)CC1 [Example 239, 2-((2-chloro-5-cyano-3-(1-(2-methylalanyl)-4-piperidinyl)phenyl)amino)-4-(cyclopropylamino)imidazo[2,1-f][1,2,4]triazine-7-carbonitrile]	9.31

From US9273057B2 (Bristol-Myers Squibb Company, priority 2012, dated 2016)
